Measurements published in patent US8912121B2, “Herbicidal compositions comprising 4-amino-3-chloro-5-fluoro-6-(4-chloro-2-fluoro-3-methoxyphenyl)pyridine-2-carboxylic acid or a derivative thereof and certain PS II inhibitors” (Dow Agrosciences LLC, priority 2012, dated 2014).

Test system: LEFCH (Leptochloa chinensis, Chinese sprangletop)
Assay: Postemergence foliar-applied mixtures, direct seeded rice, greenhouse
Assay type: in vivo, Leptochloa chinensis (L.) Nees
Conditions: 22 DAA
From the text: Seeds or nutlets of the desired test plant species were planted in a soil matrix prepared by mixing a loam or sandy loam soil (e.g., 28.6 percent silt, 18.8 percent clay, and 52.6 percent sand, with a pH of about 5.8 and an organic matter content of about 1.8 percent) and calcareous grit in an 80 to 20 ratio. The soil matrix was contained in plastic pots with a volume of 1 quart and a surface area of 83.6 square centimeters (cm^2). When required to ensure good germination and healthy plants, a fungicide treatment and/or other chemical or physical treatment was applied. The plants were grown for 8-22 days in a greenhouse with an approximate 14 h photoperiod which was maintained at about 29° C. during the day and 26° C. during the night. Nutrients (Peters Excel® 15-5-15 5-Ca 2-Mg and iron chelate) were applied in the irrigation solution as needed and water was added on a regular basis. Supplemental lighting was provided with overhead metal halide 1000-Watt lamps as necessary. The plants were employed for testing when they reached the first through fourth true leaf stage. […]
Treatment requirements were calculated based upon the rates being tested, the concentration of active ingredient or acid equivalent in the formulation, and a 12 mL application volume at a rate of 187 L/ha.
For treatments comprised of formulated compounds, measured amounts of compounds were placed individually in 25 mL glass vials and diluted in a volume of 1.25% (v/v) Agri-Dex® crop oil concentrated to obtain 12× stock solutions. […]
For treatments comprised of formulated and technical compounds, weighed amounts of the technical materials were placed individually in 25 mL glass vials and dissolved in a volume of 97:3 v/v acetone/DMSO to obtain 12× stock solutions, and measured amounts of the formulated compounds were placed individually in 25 mL glass vials and diluted in a volume of 1.5% (v/v) crop oil concentrate or water to obtain 12× stock solutions. […]

## COc1c(Cl)ccc(-c2nc(C(=O)OCc3ccccc3)c(Cl)c(N)c2F)c1F [Compound A Benzyl Ester, benzyl ester of 4-amino-3-chloro-5-fluoro-6-(4-chloro-2-fluoro-3-methoxy-phenyl)pyridine-2-carboxylic acid]
8 g ae/ha
  Visual Weed Control (%) Obs: 35%
16 g ae/ha
  Visual Weed Control (%) Obs: 40%
